In US4388236A, “Enkephalin-like compounds in bovine adrenal medulla” (Hoffmann-La Roche Inc., priority 1982, dated 1983):
Where “and” joins values, the source holds several entries; their conditions need not be identical. Equal values may be shown once. Entries after “also recorded” stand apart in the source; their conditions may differ. No end group written: not given here.

How the values were obtained:
[1] = system: mice; assay: Tail flick response (analgesic assay); assay type: in vivo; design: tail flick response, Prior Injection Time (Control) Predose / tail flick response, Post Injection Time 2 min.: unit not given here; details: for tail flick response, Prior Injection Time (Control) Predose / tail flick response, Post Injection Time 5 / tail flick response, Post Injection Time 10 / Response (analgesic activity) / tail flick response, Post Injection Time 2 min.: individual mice; for tail flick response, Prior Injection Time (Control) Predose: before intracerebral ventrical injection; for tail flick response, Post Injection Time 5 / tail flick response, Post Injection Time 10 / No. of Mice Responsive/Total No. of Mice / Response (analgesic activity) / tail flick response, Post Injection Time 2 min.: intracerebral ventrical, Beta-endorphin 4.5nm, Arg6-Phe7 met-enkephalin 6 n moles; for tail flick response, Post Injection Time 5 / tail flick response, Post Injection Time 10 / No. of Mice Responsive/Total No. of Mice / Response (analgesic activity): Acetylcholine 20ng; for tail flick response, Post Injection Time 10 / Response (analgesic activity) / tail flick response, Post Injection Time 2 min.: Met Enk 120nm
Method: For the analgesic assay, mice were injected (intracerebral ventrical) with 6 n moles of the synthetic peptide (Tyr-Gly-Gly-Phe-Met-Arg-Phe). The tail flick response assay was carried out according to the method of Dayton, et al., Proc. Soc. […] The tail flick response (analgesic activity) was measured prior to injection and at 2,5 and 10 minutes post injection time. Results are tabulated in Table V. Further results are given in Inturris, et. al., Proc. Nat'l. Acad. Sci. (U.S.A.), 77,5512 (1980).

[2] = molecular target: T1, opiate receptor (Mus musculus, UniProt P32300); assay: Radioreceptor assay (opiate receptor binding activity)
T1 construct: endogenous in cells; host or cells: neuroblastoma x glioma hybrid cells (NG108-15)
T1 sequence (P32300 whole entry): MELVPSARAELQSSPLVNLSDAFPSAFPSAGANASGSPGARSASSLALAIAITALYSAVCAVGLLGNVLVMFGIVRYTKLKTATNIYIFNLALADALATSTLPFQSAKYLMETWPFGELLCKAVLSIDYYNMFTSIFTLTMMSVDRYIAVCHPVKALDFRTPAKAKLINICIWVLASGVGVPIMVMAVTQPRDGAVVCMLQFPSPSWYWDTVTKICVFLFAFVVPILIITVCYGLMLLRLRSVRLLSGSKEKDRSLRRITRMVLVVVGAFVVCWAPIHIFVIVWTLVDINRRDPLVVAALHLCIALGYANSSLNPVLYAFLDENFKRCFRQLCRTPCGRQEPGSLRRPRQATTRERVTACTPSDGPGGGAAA
Excerpt: Extracts of bovine adrenal medulla (BAM) or chromaffin granules (CG) therefrom were obtained by conventional methods known in the art and were purified using gel filtration, high pressure liquid chromatography (HPLC) and fluorometric detection by method of Bohlen, P. et al., Anal. Biochem. 67, 437 (1975).
Opioid activities for peaks I-V were quantitatively determined by conventional means in radioreceptor assays before (Native) and after trypsin digestion of each of the peaks from BAM and CG sources.

[3] = system: rats; details: intracerebra-ventricular or intravenous administration to rats; cited from earlier work
[4] = system: C-terminal directed Leu-enkephalin antibody; assay: Radioimmunoassay with C-terminal directed Leu-enkephalin antibody; assay type: binding; details: fractions from RP-18 of peak V; 1.3 g wet weight of chromaffin granules isolated from 30 g of adrenal medulla
Method: (§1) Radioimmunoassays were performed using a C-terminal directed Leu-enkephalinantibody and a N-terminal directed Met-enkephalin antibody. The characteristics of these antibodies and methods of use have been described previously and were followed in Lewis, R. V., et al., Biochem. Biophys. Res. Commun. 89, 822 (1979).

[5] = system: N-terminal directed Met-enkephalin antibody; assay: Radioimmunoassay with N-terminal directed Met-enkephalin antibody; assay type: binding; details: fractions from RP-18 of peak V; 1.3 g wet weight of chromaffin granules isolated from 30 g of adrenal medulla
Method: as §1

[6] = system: mice; details: intracerebra-ventricular or intravenous administration to mice; cited from earlier work
[7] = system: mice; assay: Tail flick response (analgesic assay); assay type: in vivo; design: tail flick response, Prior Injection Time (Control) Predose / tail flick response, Post Injection Time 2 min.: unit not given here; details: individual mice

| Compound | tail flick response, Prior Injection Time (Control) Predose [1] | tail flick response, Post Injection Time 5 [1] | tail flick response, Post Injection Time 10 [1] | No. of Mice Responsive/Total No. of Mice [1] | opiate receptor binding activity in radioreceptor assay (in words) [2] | Response (analgesic activity) [1] | further results |
| --- | --- | --- | --- | --- | --- | --- | --- |
| CC(=O)OCC[N+](C)(C)C [Acetylcholine] | 4.6 and 5.0 and 4.5 | 6.1 and > 10 | > 10 | 3/3 |  |  |  |
| CSCC[C@H](NC(=O)[C@H](Cc1ccccc1)NC(=O)CNC(=O)CNC(=O)[C@@H](N)Cc1ccc(O)cc1)C(=O)O [F-T-2] |  |  |  |  | most active tryptic peptide |  |  |
| CC(C)C[C@H](NC(=O)[C@H](Cc1ccccc1)NC(=O)CNC(=O)CNC(=O)[C@@H](N)Cc1ccc(O)cc1)C(=O)O [Leu-Ek, leucine enkephalin] |  |  |  |  |  |  | analgesia [3]: weak and short term analgesia; C-Terminal radioimmunoassay [4]: 1.0 nmoles/fraction; N-Terminal radioimmunoassay [5]: 0.4 nmoles/fraction; analgesia [6]: weak and short term analgesia |
| CSCC[C@H](NC(=O)[C@H](Cc1ccccc1)NC(=O)CNC(=O)CNC(=O)[C@@H](N)Cc1ccc(O)cc1)C(=O)O [Met-Ek, methionine enkephalin] |  |  |  |  |  | Neg. | analgesia [3]: weak and short term analgesia; C-Terminal radioimmunoassay [4]: 0.03 nmoles/fraction; tail flick response, Prior Injection Time (Control) Predose ([7]; before intracerebral ventrical injection, listed as Met Enk): 4.1 and 5.4 and 4.6; tail flick response, Post Injection Time 10 ([7]; intracerebral ventrical, Met Enk 120nm, Acetylcholine 20ng, Beta-endorphin 4.5nm, Arg6-Phe7 met-enkephalin 6 n moles): 6.3 and 5.9 and 5.0; tail flick response, Post Injection Time 2 min. ([7]; intracerebral ventrical, Met Enk 120nm, Beta-endorphin 4.5nm, Arg6-Phe7 met-enkephalin 6 n moles): 4.0 and 4.7; Radioreceptor ([2]; fractions from RP-18 of peak V, 1.3 g wet weight of chromaffin granules isolated from 30 g of adrenal medulla): 1.0 nmoles/fraction; N-Terminal radioimmunoassay [5]: 1.0 nmoles/fraction; analgesia [6]: weak and short term analgesia |
| Beta-endorphin | 4.0 and 4.7 and 4.2 and 5.4 and 4.4 and 4.3 | > 10 and > 9 and 3.4 and 3.1 | 8 and > 10 and 3.8 | 5/7 |  | Pos. and Neg. | tail flick response, Post Injection Time 20 ([7]; intracerebral ventrical, Beta-endorphin 4.5nm): > 10; tail flick response, Post Injection Time 2 min. [1]: 5.9 and 3.0 and 4.4 and 3.8 |
| YGGFMK [F-T-1] |  |  |  |  | opiate receptor binding activity |  |  |
| YGGFMK [Met-enkephalin-(Lys^6)] |  |  |  |  |  |  | binding to the receptor relative to Met-enkephalin ([2]; from binding curves): 9% |
| YGGFMR [I-T-1] |  |  |  |  | active in the radioreceptor assay at high concentrations |  |  |
| YGGFMR [Met-enkephalin-(Arg^6)] |  |  |  |  | active in the radioreceptor assay at high concentrations; also recorded: binds very poorly |  | binding activity relative to Leu-enkephalin [2]: less than 3% |
| YGGFMRF [Arg^6 --Phe^7 met-enkephalin, Tyr-Gly-Gly-Phe-Met-Arg-Phe] | 5.7 and 5.2 and 4.6 and 3.6 and 3.7 and 4.0 | 5.4 and 4.2 and 3.8 and 9.0 and 4.0 | 6.3 and 5.8 and > 10 and 5.0 and 4 | 4/8 |  | Neg. and Pos. and neg. | tail flick response, Post Injection Time 2 min. [1]: 4.9 and 4.6 and 4.3 and 4.0 and 3.4 and 4.5 |
